Reference: patent publication US10040749B2, “Opsin-binding ligands, compositions and methods of use” (priority 2011, dated 2018)

System: P23H opsin
Experiment: Rhodopsin purification and regeneration (P23H cells treated with compound, regenerated with 9-cis-retinal, 480-500 nm absorbance)
Conditions: 480-500 nm absorbance as fold increase over DMSO control; P23H cells; compound 10 μM

| Compound | Fold Increase Over Control [fold] |
| --- | --- |
| CC1=C(CNc2cccc(C(F)(F)F)c2)C(C)(C)CCC1.Cl [Compound 1, 3-(trifluoromethyl)-N-((2,6,6-trimethylcyclohex-1-enyl)methyl)aniline hydrochloride] | 1.8 |
| CC1=C(CNc2cccc(C)c2)C(C)(C)CCC1 [Compound 2, 3-methyl-N-((2,6,6-trimethylcyclohex-1-enyl)methyl)aniline] | 2.0 |
| CC1=C(CNc2cccc(Cl)c2)C(C)(C)CCC1 [Compound 5, 3-chloro-N-((2,6,6-trimethylcyclohex-1-enyl)methyl)aniline] | 1.8 |
| CC1=C(COc2cccc(C)c2)C(C)(C)CCC1 [Compound 6, 1-methyl-3-((2,6,6-trimethylcyclohex-1-enyl)methoxy)benzene] | 1.6 |
| CC1=C(COc2cccc(F)c2)C(C)(C)CCC1 [Compound 7, 1-fluoro-3-((2,6,6-trimethylcyclohex-1-enyl)methoxy)benzene] | 2.4 |
| CC1=C(COc2cccc(Cl)c2)C(C)(C)CCC1 [Compound 8, 1-chloro-3-((2,6,6-trimethylcyclohex-1-enyl)methoxy)benzene] | 2.2 |
| CC1=C(CNc2cccc(F)c2)C(C)(C)CCC1.Cl [Compound 10, 3-fluoro-N-((2,6,6-trimethylcyclohex-1-enyl)methyl)aniline hydrochloride] | 2.1 |
| CC1=C(CNc2ccc(F)c(C)c2)C(C)(C)CCC1.Cl [Compound 15, 4-fluoro-3-methyl-N-((2,6,6-trimethylcyclohex-1-enyl)methyl)aniline hydrochloride] | 1.6 |
| CC1=C(COc2ccc(F)c(F)c2)C(C)(C)CCC1 [Compound 29, 1,2-difluoro-4-((2,6,6-trimethylcyclohex-1-enyl)methoxy) benzene] | 2.4 |
| CC1=C(C(O)Cc2ccc(C)c(C)c2)C(C)(C)CCC1 (centres unmarked) [Compound 30, 2-(3,4-dimethylphenyl)-1-(2,6,6-trimethylcyclohex-1-enyl)ethanol] | 1.8 |
| CC1(C)CCCC=C1CNc1cccc(F)c1.Cl [Compound 32, N-((6,6-dimethylcyclohex-1-enyl)methyl)-3-fluoroaniline hydrochloride] | 1.7 |
| C[C@H]1CCCC(C)(C)[C@@H]1CNc1cccc(Cl)c1.Cl [Compound 37, 3-chloro-N-(((1R,6S)-2,2,6-trimethylcyclohexyl)methyl)aniline hydrochloride] | 2.4 |
| C[C@H]1CCCC(C)(C)[C@@H]1CNc1cccc(F)c1.Cl [Compound 38, 3-fluoro-N-(((1R,6S)-2,2,6-trimethylcyclohexyl)methyl)aniline hydrochloride] | 2.4 |

Same assay, conditions: 480-500 nm absorbance as fold increase over DMSO control; P23H cells; compound 20 μM

| Compound | Fold Increase Over Control [fold] |
| --- | --- |
| C[C@H]1CCCC(C)(C)[C@@H]1CNc1cccc(C(F)(F)F)c1.Cl [Compound 12, 3-(trifluoromethyl)-N-(((1R,6S)-2,2,6-trimethylcyclohexyl)methyl)aniline hydrochloride] | 2.0 |
| CC1=C(CC(O)c2cccc(C(F)(F)F)c2)C(C)(C)CCC1 (centres unmarked) [Compound 20, 1-(3-(trifluoromethyl)phenyl)-2-(2,6,6-trimethylcyclohex-1-enyl)ethanol] | 2.4 |
| CC(=O)/C=C/C1=C(C)CCCC1(C)C [β-ionone, reference compound] | 2.4 |

Same assay, conditions: FIG. 1; P23H opsin treated with 20 μM during mutant protein production, relative to vehicle (DMSO) alone

| Compound | regeneration of 500 nm absorbing pigment upon treatment with retinal |
| --- | --- |
| CC(=O)/C=C/C1=C(C)CCCC1(C)C [β-ionone, reference compound] | increase |
